Data from PubChem BioAssay AID1963851 (Molecular Pharmacology Branch, DTP, NCI, 2024).

Tested on: 188146-221-R-J1-PDC complex spheroid viability
Experiment: Anticancer human tumor 188146-221-R-J1-PDC patient-derived colon adenocarcinoma cell line growth inhibition [POLQ]
Details: for IC50: curve of first compound; for viability, T/C: stronger effect = lower value
Outline: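 Three-cell-type spheroids modelling solid tumor plus stroma served as the readout system; POL inhibitors were tested individually and in combination, concentration ranges set by clinical Cmax where known.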

[1] = second compound 0.0316 µM, first compound 0.00316 µM
[2] = second compound 0.0316 µM, first compound 0.01 µM
[3] = second compound 0.0316 µM, first compound 0.0316 µM
[4] = second compound 0.0316 µM, first compound 0.1 µM
[5] = second compound 0.0316 µM, first compound 0.316 µM
[6] = second compound 0.0316 µM, first compound 1 µM
[7] = second compound 0.1 µM, first compound 0.00316 µM
[8] = second compound 0.1 µM, first compound 0.01 µM
[9] = second compound 0.1 µM, first compound 0.0316 µM
[10] = second compound 0.1 µM, first compound 0.1 µM
[11] = second compound 0.1 µM, first compound 0.316 µM
[12] = second compound 0.1 µM, first compound 1 µM
[13] = second compound 0.316 µM, first compound 0.00316 µM
[14] = second compound 0.316 µM, first compound 0.01 µM
[15] = second compound 0.316 µM, first compound 0.0316 µM
[16] = second compound 0.316 µM, first compound 0.1 µM
[17] = second compound 0.316 µM, first compound 0.316 µM
[18] = second compound 0.316 µM, first compound 1 µM
[19] = second compound 1 µM, first compound 0.00316 µM
[20] = second compound 1 µM, first compound 0.01 µM
[21] = second compound 1 µM, first compound 0.0316 µM
[22] = second compound 1 µM, first compound 0.1 µM
[23] = second compound 1 µM, first compound 0.316 µM
[24] = second compound 1 µM, first compound 1 µM
[25] = second compound 3.16 µM, first compound 0.00316 µM
[26] = second compound 3.16 µM, first compound 0.01 µM
[27] = second compound 3.16 µM, first compound 0.0316 µM
[28] = second compound 3.16 µM, first compound 0.1 µM
[29] = second compound 3.16 µM, first compound 0.316 µM
[30] = second compound 3.16 µM, first compound 1 µM
[31] = second compound 10 µM, first compound 0.00316 µM
[32] = second compound 10 µM, first compound 0.01 µM
[33] = second compound 10 µM, first compound 0.0316 µM
[34] = second compound 10 µM, first compound 0.1 µM
[35] = second compound 10 µM, first compound 0.316 µM
[36] = second compound 10 µM, first compound 1 µM
[37] = second compound 0.0316 µM, first compound 3.16 µM
[38] = second compound 0.0316 µM, first compound 10 µM
[39] = second compound 0.1 µM, first compound 3.16 µM
[40] = second compound 0.1 µM, first compound 10 µM
[41] = second compound 0.316 µM, first compound 3.16 µM
[42] = second compound 0.316 µM, first compound 10 µM
[43] = second compound 1 µM, first compound 3.16 µM
[44] = second compound 1 µM, first compound 10 µM
[45] = second compound 3.16 µM, first compound 3.16 µM
[46] = second compound 3.16 µM, first compound 10 µM
[47] = second compound 10 µM, first compound 3.16 µM
[48] = second compound 10 µM, first compound 10 µM
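Note: spheroids exposed to compounds for seven days.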
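Throughout, for viability, T/C: 100% = DMSO vehicle control viability.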

With C=CCn1c(=O)c2cnc(Nc3ccc(N4CCN(C)CC4)cc3)nc2n1-c1cccc(C(C)(C)O)n1 + COC1C(OC(N)=O)C(O)C(Oc2ccc3c(O)c(NC(=O)c4ccc(O)c(CC=C(C)C)c4)c(=O)oc3c2C)OC1(C)C the IC50 (second compound 0.0316 µM) was > 1000 nM, the IC50 (second compound 0.1 µM) was 933 nM and the IC50 (second compound 0.316 µM) was > 1000 nM. The IC50 (second compound 1 µM) was > 1000 nM, the IC50 (second compound 3.16 µM) was > 1000 nM and the IC50 (second compound 10 µM) was 908 nM. It also gave a viability, T/C [1] of 106%, a viability, T/C [2] of 99.2% and a viability, T/C [3] of 103%. For the same molecule, the viability, T/C [4] was 101%, the viability, T/C [5] was 98% and the viability, T/C [6] was 51.5%. The viability, T/C [7] was 111%, the viability, T/C [8] was 106% and the viability, T/C [9] was 101%. For the same molecule, the viability, T/C [10] was 98%, the viability, T/C [11] was 91.5% and the viability, T/C [12] was 46.8%. The viability, T/C [13] was 85.1%, the viability, T/C [14] was 106% and the viability, T/C [15] was 96.5%. It also gave a viability, T/C [16] of 101%, a viability, T/C [17] of 97.6% and a viability, T/C [18] of 56.3%. For the same molecule, the viability, T/C [19] was 108%, the viability, T/C [20] was 100% and the viability, T/C [21] was 102%. The viability, T/C [22] was 95.9%, the viability, T/C [23] was 87.7% and the viability, T/C [24] was 55.2%. For the same molecule, the viability, T/C [25] was 102%, the viability, T/C [26] was 98.9% and the viability, T/C [27] was 108%. It also gave a viability, T/C [28] of 98.4%, a viability, T/C [29] of 98% and a viability, T/C [30] of 56.3%. For the same molecule, the viability, T/C [31] was 109%, the viability, T/C [32] was 96.9% and the viability, T/C [33] was 100%. It also gave a viability, T/C [34] of 100%, a viability, T/C [35] of 98.1% and a viability, T/C [36] of 45.6%.
For CCc1c2c(nc3ccc(O)cc13)-c1cc3c(c(=O)n1C2)COC(=O)[C@]3(O)CC + COC1C(OC(N)=O)C(O)C(Oc2ccc3c(O)c(NC(=O)c4ccc(O)c(CC=C(C)C)c4)c(=O)oc3c2C)OC1(C)C, the IC50 (second compound 0.0316 µM) was 25.9 nM, the IC50 (second compound 0.1 µM) was 26.8 nM and the IC50 (second compound 0.316 µM) was 24 nM. For the same molecule, the IC50 (second compound 1 µM) was 27 nM, the IC50 (second compound 3.16 µM) was 21.1 nM and the IC50 (second compound 10 µM) was 13.2 nM. It also gave a viability, T/C [1] of 96.6%, a viability, T/C [2] of 83.1% and a viability, T/C [3] of 41%. It also gave a viability, T/C [4] of 20.6%, a viability, T/C [5] of 10.8% and a viability, T/C [6] of 7.12%. The viability, T/C [7] was 95.7%, the viability, T/C [8] was 88% and the viability, T/C [9] was 42.5%. The viability, T/C [10] was 16.8%, the viability, T/C [11] was 8.86% and the viability, T/C [12] was 6.83%. For the same molecule, the viability, T/C [13] was 87.1%, the viability, T/C [14] was 88.6% and the viability, T/C [15] was 38%. For the same molecule, the viability, T/C [16] was 14.2%, the viability, T/C [17] was 9.57% and the viability, T/C [18] was 7.85%. For the same molecule, the viability, T/C [19] was 93.5%, the viability, T/C [20] was 91.2% and the viability, T/C [21] was 42.9%. The viability, T/C [22] was 16.6%, the viability, T/C [23] was 11% and the viability, T/C [24] was 7.07%. It also gave a viability, T/C [25] of 94.3%, a viability, T/C [26] of 79% and a viability, T/C [27] of 34%. It also gave a viability, T/C [28] of 13.3%, a viability, T/C [29] of 10.9% and a viability, T/C [30] of 6.97%. For the same molecule, the viability, T/C [31] was 95.5%, the viability, T/C [32] was 56.7% and the viability, T/C [33] was 28.6%. It also gave a viability, T/C [34] of 14.9%, a viability, T/C [35] of 9.1% and a viability, T/C [36] of 9.35%.
CNCc1ccc(-c2[nH]c3cc(F)cc4c3c2CCNC4=O)cc1 + COC1C(OC(N)=O)C(O)C(Oc2ccc3c(O)c(NC(=O)c4ccc(O)c(CC=C(C)C)c4)c(=O)oc3c2C)OC1(C)C was tested, and the IC50 (second compound 0.0316 µM) was > 10000 nM, the IC50 (second compound 0.1 µM) was > 10000 nM and the IC50 (second compound 0.316 µM) was > 10000 nM. The IC50 (second compound 1 µM) was > 10000 nM, the IC50 (second compound 3.16 µM) was > 10000 nM and the IC50 (second compound 10 µM) was > 10000 nM. The viability, T/C [3] was 111%, the viability, T/C [4] was 98.3% and the viability, T/C [5] was 109%. It also gave a viability, T/C [6] of 102%, a viability, T/C [37] of 103% and a viability, T/C [38] of 96.5%. For the same molecule, the viability, T/C [9] was 118%, the viability, T/C [10] was 104% and the viability, T/C [11] was 106%. The viability, T/C [12] was 99.6%, the viability, T/C [39] was 102% and the viability, T/C [40] was 117%. It also gave a viability, T/C [15] of 106%, a viability, T/C [16] of 101% and a viability, T/C [17] of 102%. The viability, T/C [18] was 111%, the viability, T/C [41] was 112% and the viability, T/C [42] was 104%. For the same molecule, the viability, T/C [21] was 108%, the viability, T/C [22] was 110% and the viability, T/C [23] was 106%. It also gave a viability, T/C [24] of 105%, a viability, T/C [43] of 99.5% and a viability, T/C [44] of 115%. The viability, T/C [27] was 98.1%, the viability, T/C [28] was 99.8% and the viability, T/C [29] was 106%. The viability, T/C [30] was 101%, the viability, T/C [45] was 111% and the viability, T/C [46] was 107%. For the same molecule, the viability, T/C [33] was 111%, the viability, T/C [34] was 103% and the viability, T/C [35] was 110%. The viability, T/C [36] was 93.2%, the viability, T/C [47] was 117% and the viability, T/C [48] was 121%.
In the case of O=C(c1cc(Cc2n[nH]c(=O)c3ccccc23)ccc1F)N1CCN(C(=O)C2CC2)CC1 + COC1C(OC(N)=O)C(O)C(Oc2ccc3c(O)c(NC(=O)c4ccc(O)c(CC=C(C)C)c4)c(=O)oc3c2C)OC1(C)C, the IC50 (second compound 0.0316 µM) is reported as > 10000 nM, the IC50 (second compound 0.1 µM) is reported as > 10000 nM and the IC50 (second compound 0.316 µM) is reported as > 10000 nM. For the same molecule, the IC50 (second compound 1 µM) was > 10000 nM, the IC50 (second compound 3.16 µM) was > 10000 nM and the IC50 (second compound 10 µM) was > 10000 nM. It also gave a viability, T/C [3] of 93.5%, a viability, T/C [4] of 88.6% and a viability, T/C [5] of 100%. It also gave a viability, T/C [6] of 98.4%, a viability, T/C [37] of 99.5% and a viability, T/C [38] of 74.3%. The viability, T/C [9] was 107%, the viability, T/C [10] was 102% and the viability, T/C [11] was 97.1%. It also gave a viability, T/C [12] of 106%, a viability, T/C [39] of 91.3% and a viability, T/C [40] of 85.2%. For the same molecule, the viability, T/C [15] was 108%, the viability, T/C [16] was 94.1% and the viability, T/C [17] was 97.7%. It also gave a viability, T/C [18] of 105%, a viability, T/C [41] of 90.7% and a viability, T/C [42] of 72.7%. The viability, T/C [21] was 106%, the viability, T/C [22] was 104% and the viability, T/C [23] was 104%. It also gave a viability, T/C [24] of 96.3%, a viability, T/C [43] of 89.5% and a viability, T/C [44] of 74.7%. The viability, T/C [27] was 108%, the viability, T/C [28] was 107% and the viability, T/C [29] was 101%. It also gave a viability, T/C [30] of 91.7%, a viability, T/C [45] of 105% and a viability, T/C [46] of 96.6%. For the same molecule, the viability, T/C [33] was 101%, the viability, T/C [34] was 103% and the viability, T/C [35] was 98.8%. It also gave a viability, T/C [36] of 97.1%, a viability, T/C [47] of 108% and a viability, T/C [48] of 80.5%.
